In patent EP0043274A2, “Antithrombotic treatment” (priority 1980, dated 1982):
Several values for one entry are separate records, joined by “and”; a condition that tells them apart may be missing. Equal entries are not always repeated. Where two headings read alike, the source gives them in different places.

How the values were obtained:
human plasma [1] = assay type: biochemical
[2] = test system: thrombus formation in the jugular vein; assay: I 125 fibrinogen technique, damaged jugular vein (venous thrombosis), continuous infusion; assay type: in vivo, rabbits; settings: continuous infusion for five hours
Experimental: The anti venous thrombotic effect of sodium bisulfite is evaluated in rabbits by using I ^125 fibrinogen technique as described in an article in "Archives of Surgery" Vol. 104, pg. 152 (1972).
The rabbit was continuously infused with aqueous sodium bisulfite solution at the rate of […]. (5.154 gram per hour) (animal body weight 2.3 kg) for a time of five hours. After 5 hours, the animal was sacrificed and the radioactive fibrinogen accumulated in the damaged jugular vein was determined. The radioactivity on the contra-lateral (undamaged) jugular vein was also determined to serve as a control. Concurrently, another rabbit had experienced the same procedure but received only a standard sodium chloride solution as a control. The rabbit from the normal saline solution has seven times as much radioactivity as his counterpart infused with sodium bisulfite.
Two jugular veins on a normal, healthy rabbit are exposed and one of the veins is systematically damaged by clamping in two longitudinally spaced places. The rabbit is then continuously infused with aqueous sodium formaldehyde bisulfite at the rate of […] (5.154 gram per hour) (animal body weight 2.3 kg). The rabbit is then injected with fibrinogen labeled with I^125. After 5 hours, the damaged jugular vein is evaluated for radioacive count with a Geiger counter.
This iodine 125 evaluation technique is described by Kakkar in Archieves of Surgery, Vol. 104, pg. 152 (1972) and by Kelton, J.G. et al, Journal of Clinical Investigation, Vol. 62, pgs. 892-895, (1978). […] Other rabbits, similarly evaluated, died, apparently because of overdose by the infustion technique.

human plasma [3] = assay type: biochemical; remark: listed apart in the source
FIBRINOGEN = biological target: T1, FIBRINOGEN (Homo sapiens, UniProt P02671+P02675+P02679); assay: Coagulation factor assay (Biggs): fibrinogen; assay type: biochemical; settings: mean of two experiments; control 205
T1 construct: from tissue; host or cells: human plasma
T1 sequence (P02671 20-629 limits assumed): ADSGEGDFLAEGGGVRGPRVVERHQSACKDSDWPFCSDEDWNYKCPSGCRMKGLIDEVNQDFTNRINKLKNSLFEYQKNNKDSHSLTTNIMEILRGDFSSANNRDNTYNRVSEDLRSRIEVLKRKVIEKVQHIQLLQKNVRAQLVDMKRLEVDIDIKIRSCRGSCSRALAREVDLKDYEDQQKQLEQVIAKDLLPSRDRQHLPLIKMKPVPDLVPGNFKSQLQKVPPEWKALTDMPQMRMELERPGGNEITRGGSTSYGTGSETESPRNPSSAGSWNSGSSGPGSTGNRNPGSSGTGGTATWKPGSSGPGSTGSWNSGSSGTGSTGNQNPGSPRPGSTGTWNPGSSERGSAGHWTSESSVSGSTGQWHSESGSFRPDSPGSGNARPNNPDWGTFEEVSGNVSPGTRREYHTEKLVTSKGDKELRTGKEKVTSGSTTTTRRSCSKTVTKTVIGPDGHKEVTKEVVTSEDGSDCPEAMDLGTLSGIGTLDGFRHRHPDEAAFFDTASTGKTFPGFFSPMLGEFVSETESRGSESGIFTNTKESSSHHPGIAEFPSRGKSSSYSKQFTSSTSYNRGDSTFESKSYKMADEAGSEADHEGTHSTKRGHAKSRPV
T1 sequence (P02675 31-491): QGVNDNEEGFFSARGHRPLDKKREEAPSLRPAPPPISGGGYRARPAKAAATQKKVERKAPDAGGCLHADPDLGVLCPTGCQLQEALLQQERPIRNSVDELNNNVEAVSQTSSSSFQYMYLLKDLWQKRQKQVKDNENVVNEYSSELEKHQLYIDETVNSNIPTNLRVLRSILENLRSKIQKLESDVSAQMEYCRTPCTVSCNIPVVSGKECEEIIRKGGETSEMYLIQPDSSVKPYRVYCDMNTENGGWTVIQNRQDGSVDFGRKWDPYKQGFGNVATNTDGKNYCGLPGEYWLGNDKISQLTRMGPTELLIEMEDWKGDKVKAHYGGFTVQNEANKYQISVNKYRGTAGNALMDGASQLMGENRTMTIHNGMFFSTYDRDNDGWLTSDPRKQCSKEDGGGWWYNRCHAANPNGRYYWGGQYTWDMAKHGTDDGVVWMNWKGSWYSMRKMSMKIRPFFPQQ
T1 sequence (P02679 27-453): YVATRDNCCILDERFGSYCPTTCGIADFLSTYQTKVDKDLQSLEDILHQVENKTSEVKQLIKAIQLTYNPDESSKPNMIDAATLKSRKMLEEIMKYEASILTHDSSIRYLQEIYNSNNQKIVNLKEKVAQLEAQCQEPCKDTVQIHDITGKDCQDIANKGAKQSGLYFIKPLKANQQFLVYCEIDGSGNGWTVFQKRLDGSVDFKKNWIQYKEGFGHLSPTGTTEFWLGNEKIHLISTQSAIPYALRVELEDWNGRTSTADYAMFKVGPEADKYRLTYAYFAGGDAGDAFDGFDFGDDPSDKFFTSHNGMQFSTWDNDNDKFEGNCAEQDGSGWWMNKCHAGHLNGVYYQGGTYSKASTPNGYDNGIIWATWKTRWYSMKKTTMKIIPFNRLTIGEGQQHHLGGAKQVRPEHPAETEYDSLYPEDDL
Experimental: The effect of U.S.P. grade sodium bisulfite on blood coagulation factors is evaluated by standard procedures (Biggs) and the results are shown in Table III below.
References for PT, PTT, and assays of all the coagulation factors can be found in a standard textbook, entitled "Human Blood Coagulation, Haemostasis and Thrombosis", edited by Rosemary Biggs, published by Blackwell Scientific Publications, Oxford, England (2nd edition), pages 670-705, 1976.

[4] = amine bisulfites, control plasma 12.8 / 13.1
[5] = amine bisulfites, control plasma 13.1 / 13.0
[6] = amine bisulfites, control plasma 37.5 / 38.2
[7] = amine bisulfites, control plasma 37.8 / 39.2
[8] = coded agents 0.5mg/ml, […], control 12.92
[9] = 0.5 mg/ml, two different days, control 42.6 / 42.10
[10] = coded agents 0.5mg/ml, […], control 43.38

OCCNCCO [DIETHANOL AMINE]
PT REPLICATIONS 1 (human plasma [1]; [4]): 20.6 | PT REPLICATIONS 2 (human plasma [1]; [4]): 19.8 | PT REPLICATIONS 3 (human plasma [1]; [5]): 19.7 | thrombus formation in the jugular vein (conclusion in words) [2]: definite positive antithrombotic effect | PTT REPLICATIONS 2 (human plasma [3]): 58.0 | PTT REPLICATIONS 1 (human plasma [3]; [6]): 62.6 | PTT REPLICATIONS 3 (human plasma [3]; [7]): 60.6

c1ccncc1 [PYRIDINE]
PT REPLICATIONS 1 (human plasma [1]): 29.3 | PT REPLICATIONS 2 (human plasma [1]): 27.8 | PT REPLICATIONS 3 (human plasma [1]): 27.2 | PTT REPLICATIONS 1 (human plasma [3]): 80.0 | PTT REPLICATIONS 2 (human plasma [3]): 71.1 | PTT REPLICATIONS 3 (human plasma [3]): 59.3

O=S([O-])S(=O)(=O)[O-].[K+].[K+] [Potassium Metabisulfite]
PT (human plasma [1]): 18.76 s | PT(seconds) Exp. 1 A (human plasma [1]): 18.3 s and 20.4 s | PT(seconds) Exp. 2 A (human plasma [1]): 22.0 s | PT (human plasma [1]; [8]): 19.34 s | PTT(seconds) Exp. 1 A (human plasma [3]): 77.6 s and 91.6 s | PTT (human plasma [3]; [9]): 80.60 s | PTT(seconds) Exp. 2 A (human plasma [3]; Active Agent 0.5/ml, test sequences A and B, control 50.5 (A), 44.5 (B)): 111.3 s and 105.2 s | PTT (human plasma [3]; [10]): 83.84 s

O=S(O)CO [SO2, Sodium formaldehyde sulfoxalate, reference compound]
PT (human plasma [1]): 13.8 s | PT (human plasma [1]; [8]): 14.94 s | PTT sec (human plasma [3]; [9]): 45.1 (53.8) sec | PTT (human plasma [3]; [10]): 49.22 s

CCN(CC)C(=S)S [SO4, Sodium diethyl dithiocarbamate, reference compound]
PT (human plasma [1]): 13.6 s | PT (human plasma [1]; [8]): 14.02 s | PTT (human plasma [3]; [9]): 48.1 s | PTT (human plasma [3]; coded agents 0.5mg/ml, mean values of 5 replications, control 43.38): 49.60 s

O=S([O-])S(=O)(=O)[O-].[Na+].[Na+] [Sodium Metabisulfite]
PT (human plasma [1]): 19.56 s | PT(seconds) Exp. 1 A (human plasma [1]): 18.5 s | PT(seconds) Exp. 2 A (human plasma [1]): 21.9 s | PTT(seconds) Exp. 1 A (human plasma [3]): 76.9 s | PTT (human plasma [3]; [9]): 77.75 s

CC(C)(C)N [TERT-BUTYL AMINE]
PT REPLICATIONS 1 (human plasma [1]; [4]): 21.7 | PT REPLICATIONS 2 (human plasma [1]; [4]): 21.8 | PT REPLICATIONS 3 (human plasma [1]; [5]): 21.8 | PTT REPLICATIONS 2 (human plasma [3]): 68.9 | PTT REPLICATIONS 1 (human plasma [3]; [6]): 68.2 | PTT REPLICATIONS 3 (human plasma [3]; [7]): 69.0

CCN(CC)CC.O=S(O)O [TRIETHYL AMINE SULFITE, triethyl amine sulfite]
MEAN LSD (PT) (human plasma [1]): 16.9 ± 1.1 s | PT(Sec) […]. 1 (human plasma [1]): 17.0 s | PT(Sec) […]. 2 (human plasma [1]): 18.5 s | PT(Sec) […]. 3 (human plasma [1]): 15.4 s | PT(Sec) […]. 4 (human plasma [1]): 16.6 s | PT(Sec) […].5 (human plasma [1]): 16.8 s | thrombus formation in the jugular vein (conclusion in words) [2]: definite positive antithrombotic effect | MEAN LSD (PTT) (human plasma [3]): 60.6 ± 4.1 s | PTT(Sec) […]. 1 (human plasma [3]): 59.2 s | PTT(Sec) […]. 2 (human plasma [3]): 65.1 s | PTT(Sec) […]. 3 (human plasma [3]): 54.9 s | PTT(Sec) […]. 4 (human plasma [3]): 59.0 s | PTT(Sec) […].5 (human plasma [3]): 64.0 s | Fibrinogen (%) (FIBRINOGEN): 170%

CCN(CC)CC.Cl [TRIETHYLAMINE HYDROCHLORIDE, reference compound]
PT 1 (human plasma [1]): 12.8 | PT 2 (human plasma [1]): 12.7 | PT 3 (human plasma [1]): 13.5 | PTT 1 (human plasma [3]): 32.0 | PTT 2 (human plasma [3]): 31.5 | PTT 3 (human plasma [3]): 34.5

CCCC[N+](CCCC)(CCCC)CCCC.[Br-] [Tetrabutyl Ammonium Bromide, reference compound]
PT (effect in words) (human plasma [1]): little or no effect | PT sec. (human plasma [1]): 12.4 s | PTT (effect in words) (human plasma [3]): little or no effect | PTT sec (human plasma [3]): 38.3 s

C[N+](C)(C)C [Tetramethyl Ammonium Bromide, reference compound]
PT sec. (human plasma [1]): 12.5 s | PT (effect in words) (human plasma [1]; in vitro, 0.5 mg/ml): little or no effect | PTT sec (human plasma [3]; 0.5 mg/ml, human plasma, control 38.1): 38.5 s | PTT (effect in words) (human plasma [3]; in vitro, 0.5 mg/ml): little or no effect

CC(C)=O [acetone, reference compound]
PT (effect in words) (human plasma [1]; in vitro, 0.5 mg/ml): minimal effect | PTT (effect in words) (human plasma [3]; in vitro, 0.5 mg/ml): minimal effect
